Patent US20120130146A1, “CONTINUOUS ADMINISTRATION OF CILENGITIDE IN CANCER TREATMENTS” (Merck Patent GmbH, priority 2009, published 2012)
Entries after “also recorded” stand apart in the source; their conditions may differ.

Assays:
[1] = test system: advanced solid malignancy; assay: Phase I study of continuous infusion EMD 121974 in patients with advanced solid malignancy (safety); format: in vivo
Procedure: Background: Integrins avβ3 and avβ5 are cell-surface receptors that play a significant role in angiogenesis by mediating the ligation signal that allows endothelial cells to attach to the extracellular matrix. These integrins share the binding epitope Arg-Gly-Asp (RGD). EMD is an RGD-containing cyclic pentapeptide. In clinical studies to date, EMD has been administered in an intermittent fashion. […] Methods: EMD was administered as a continuous infusion without break in 4-week cycles. Plasma samples for pharmacokinetic studies were obtained weekly in cycle 1 immediately prior to and 2 hours after infusion bag change. Results: To date 21 patients (15 male/6 female, median age 56, median Karnofsky performance status 90%) have been treated at the following dose levels: 1, 2, 4, 8, 12, 18, and 27 mg/h. […] Non-hematologic toxicities have been limited to grade<2 and include alopecia, anorexia, diarrhea, fatigue, hypokalemia, hyponatremia, hypophosphatemia, insomnia, mucositis, nail changes, nausea, and transaminase elevation. […] Pharmacokinetic analysis has been completed for patients treated at the 12 mg/h dose level and below. […] Conclusions: EMD can be safely administered as a continuous infusion at doses of up to at least 18 mg/h. No single toxicity has been consistently observed.

[2] = test system: recurrent glioblastoma (GBM); assay: Phase IIa trial of cilengitide single agent therapy in patients with recurrent glioblastoma; format: in vivo, human
Procedure: Background: The present phase IIa study was designed to evaluate the safety, toxicity, and clinical activity of the cyclic RGD pentapeptide cilengitide((=cyclo-(Arg-Gly-Asp-DPhe-NMe-Val)), an inhibitor of integrins avβ3 and avβ5, as a single agent at doses of 500 and 2000 mg in patients (pts) with recurrent glioblastoma (GBM).
Methods: in this multicenter, open-label, randomized, uncontrolled study, pts with GBM and measurable disease that had relapsed after previous therapy with temozolomide and radiotherapy were randomized to receive cilengitide at doses of either 500 mg or 2000 mg i.v., 2×/week, until progression. Histopathology diagnosis and MRI imaging were subject to independent blinded review. The primary endpoint was Progression Free Survival (PFS) at 6 months (mths). Secondary endpoints included response, survival, time to disease progression, safety, tolerability and pharmacokinetics.

various brain tumors = conditions: cited from earlier work
[3] = test system: human umbilical vein endothelial cells (HUVECs); assay: Growth (Alamar Blue) assay on HUVEC, Example 5; format: cell-based; conditions: agent alone
Excerpt: The methods established and described in detail previously (Goodman and Hahn a; b) were used to measure the effect of combinations of integrin inhibitors and chemotherapeutics on carcinoma cell and human endothelial cell proliferation.
Points were run in duplicate or in triplicate. Reagent blanks, containing media plus Alamar Blue without cells, were run on each plate. Blank values were subtracted from test values and were routinely 5-10% of uninhibited control values.
5.5 Methods of Evaluation and Statistics Chemotherapeutic agents and αv-integrin blockers were serially diluted alone or together (combination therapy). In some assays the chemotherapeutic agent was serially diluted alone or in combination with of alpha-v integrin blocker. Growth inhibition curves were plotted and a shift of the combination therapy curve to lower concentrations in relation to the single agent curves was interpreted as an additional effect, produced by combination versus monotherapy.
The αv-integrin competitive inhibitor Cilengitide (EMD 121974) was tested alone and in combination with vinorelbine in a serum growth stimulation assay using human carcinoma cells or human umbilical vein endothelial cells (HUVECs). In these assays cells are cultured in serum, or in an endothelial growth stimulation medium (Goodman & Hahn).

[4] = human, in vivo; cited from earlier work
[5] = test system: U251 human glioblastoma cells; assay: Rat orthotopic glioblastoma model radiotherapy, Cilengitide scheduling experiments; format: in vivo; conditions: t-4 and t-8 h groups
Procedure: NIH mu nude rats are anaesthetized, restrained, and injected intracerebrally 1 mm retro orbitally, 3 mm to the right of the bregma and at a depth of 2.5 mm with 5×10E5 U251 human glioblastoma cells suspended in 10 ul of culture medium, using a #2701 Hamilton syringe fitted with a 26 gauge needle, essentially as previously described (Engebraaten et al., 1999). After 14 days, cilengitide (4 mg/kg) is given as an intraperitoneal bolus in PBS, at various time (8 h, 4 h, 2 h, 1 h) prior to a single treatment with single, collimated, dorsal-ventral beam of 6 MV x-rays, so that 95-100% of the central axis dose of 25 Gy hit the tumor volume (Kim et al., 1999). Each of the 7 subsequent days the animals also received an identical i.p. bolus of cilengitide. The animals are maintained under ad libitum food and drink until they become moribund, or are sampled for tissue analysis (in the t-4 and t-8 h groups, where the animals are healthy past 230 days post tumor injection). A Kaplan-Meier survival curve is calculated and plotted (FIG. 1) from the raw data (Table 1). All animals in the RT monotherapy group died by 120 d.

[6] = test system: newly diagnosed glioblastoma (GBM); assay: Phase I/IIa trial of cilengitide and temozolomide with concomitant radiotherapy in newly diagnosed glioblastoma; format: in vivo, human
Procedure: Purpose: To evaluate safety, toxicity, and efficacy of the combination of the cyclic RGD pentapeptide Cilengitide (=cyclo-(Arg-Gly-Asp-DPhe-NMe-Val)), an inhibitor of integrins avβ3 and avβ5, in addition to standard temozolomide (TMZ) and radiotherapy (RT).
Patients and methods: Fifty-two pts (PS 0-1: 92%, 2: 8%; median age 57 yrs) after biopsy (n=9/17%) or tumor resection (n=43/83%) were treated with standard TMZ/RT (Stupp et al. NEJM 2005). In addition Cilengitide (500 mg i.v., 2×/week) was started one week before TMZ/RT and given throughout for the duration of chemotherapy or until progression. Primary endpoint was progression free survival rate at 6 months (target: 65%). Patients were followed with MRI every 2 months. Histopathologic diagnosis and MRI imaging were independently reviewed, MGMT promotor methylation status was assessed in 45 (86.5%) pts.

[7] = Cilengitide 500 mg i.v. 2x/week in addition to standard TMZ/RT

CC(C)[C@H]1C(=O)N[C@@H](CCCN=C(N)N)C(=O)NCC(=O)N[C@@H](CC(=O)O)C(=O)N[C@H](Cc2ccccc2)C(=O)N1C [Cilengitide, cyclo-(Arg-Gly-Asp-DPhe-NMeVal)]
dose that can be safely administered as a continuous infusion ([1]; human, in vivo): at least 18 mg/h | patient death ([1]; one patient treated at 27 mg/h, after two weeks of therapy): unobserved death of unknown cause | median Overall Survival (mOS) ([2]; 500 mg arm): 6.5 mths | pts who received 12 or more cycles of therapy ([2]; 1 cycle = 4 weeks, both dose arms): 12.3% | median Overall Survival (mOS) ([2]; 2000 mg arm): 9.9 mths | PFS rate at 6 mths ([2]; 500 or 2000 mg i.v. 2x/week, all 81 pts): 16.1% | Treatment related NCI CTC grade 3 adverse events ([2]; at 500 mg, in 1 patient each): elevated liver enzymes; also recorded: arthralgia/myalgia | Treatment related NCI CTC grade 3 adverse events ([2]; at 2000 mg, in 1 patient): weight increase/edema | pts still progression-free and on treatment ([2]; at the time the abstract was issued): 7.4% | grade 4 therapy related AEs ([2]; both dose arms): No grade 4 therapy related AEs | single agent activity in recurrent glioblastoma ([2]; human, in vivo): advantagous single agent activity | cerebral hemorrhage ([2]; possibly related either to the drug or to the disease): One CTC grade 2 cerebral hemorrhage | tolerability ([2]; single agent therapy at two dose levels): tolerated well | MTD in humans (various brain tumors; human, in vivo): no known MTD | tolerability (various brain tumors; human, in vivo): very well tolerated | response in GBM patients (various brain tumors; some of the GBM patients): indication of response | IC50 [3]: 700 nM | half-life [4]: 3 to 5 h | animals healthy, days post tumor injection [5]: > 230 days | haematological grade 3 and 4 toxicity: lymphopenia [6, 7]: 53.8% | haematological grade 3 and 4 toxicity: neutropenia [6, 7]: 9.6% | haematological grade 3 and 4 toxicity: thrombocytopenia [6, 7]: 13.4% | patients with treatment related non-hematologic grade 3 toxicities [6, 7]: 5.7% | patients progression free at 6 months (PFS-6) ([6]; all 52 pts, Cilengitide in addition to TMZ/RT): 65.4% | tolerability ([6]; combination of Cilengitide and TMZ/RT): well tolerated | PFS-6 rate ([6]; subgroup with methylated MGMT promoter (23/52), Cilengitide in addition to TMZ/RT): 91% | PFS-6 rate ([6]; subgroup with unmethylated MGMT promotor (22/52), Cilengitide in addition to TMZ/RT): 40.9%
